Measurements taken from paper PMC8196787, “Design and Pharmacodynamics of Recombinant Fungus Defensin NZL with Improved Activity against Staphylococcus hyicus In Vitro and In Vivo” (International Journal of Molecular Sciences, 2021).
≈ marks a conversion by molar mass, not a printed value. Positions of bridges follow the written chain, without caps; N, C: chain ends. Residues, ends and D or L forms follow the SMILES beside them.

Columns and labels:
S. hyicus ACCC 61734 = assay: microbe, parasite or virus in culture; format: cell-based; settings: S. hyicus ACCC 61734 (clinical strain); microbroth dilution, MHB, 37 °C, 16–20 h, triplicate
Description: (§1) The microbroth dilution method was used to evaluate the MIC values of new derivative peptides. […] The MIC value was defined as the lowest concentration where no visible bacteria growth occurred after overnight incubation. CRO was used as the positive control. All assays were conducted in triplicate.

S. aureus ATCC 43300 = assay: microbe, parasite or virus in culture; format: cell-based; settings: S. aureus ATCC 43300; microbroth dilution, MHB, 1 × 10^5 CFU/mL, 37 °C, 16–20 h, peptides 1–256 μg/mL, triplicate
Description: as §1

[1] = test system: isolated S. hyicus (n = 207); settings: n = 207 isolates, Japan; cited from earlier work
Excerpt: Staphylococcus hyicus is one of the opportunistic and commensal pathogens which can cause acute infections to animals and humans. It was reported that exfoliative toxins-producing S. hyicus is primarily known as the most common causative agent of exudative epidermitis in pigs, which occurs typically as an acute skin lesions characterized by sebaceous exudation, exfoliation, and vesicle formation. This disease with prominent morbidity and mortality occurs worldwide, resulting in considerable economic losses in the swine industry. To date, piglets infected with S. hyicus are fr ...

Row | Compound | MIC (S. hyicus ACCC 61734) [µg/mL] | MIC (S. aureus ATCC 43300) [µg/mL] | Isolated S. hyicus resistant to the drug [1] [%]
1 | CC[C@H](C)[C@@H]1NC(=O)[C@H](CO)NC(=O)[C@H](CCCCN)NC(=O)[C@@H]2CSSC[C@@H](C(=O)N[C@@H](Cc3ccc(O)cc3)C(=O)O)NC(=O)[C@H](CCCCN)NC(=O)[C@@H]3CSSC[C@H](NC(=O)[C@H](CCC(N)=O)NC(=O)[C@H](CC(C)C)NC(=O)[C@H](CC(=O)O)NC(=O)[C@H](CC(=O)O)NC(=O)[C@H](CCC(=O)O)NC(=O)[C@H](CO)NC(=O)[C@H](Cc4c[nH]c5ccccc45)NC(=O)[C@@H]4CCCN4C(=O)CNC(=O)[C@H](CC(N)=O)NC(=O)[C@@H](NC(=O)CNC(=O)[C@H](Cc4ccccc4)NC(=O)CN)CSSC[C@H](NC(=O)[C@H](Cc4ccc(O)cc4)NC(=O)CNC(=O)CNC(=O)[C@H](CCCCN)NC(=O)[C@H](Cc4ccc(O)cc4)NC(=O)CNC(=O)[C@H](CCCCN)NC1=O)C(=O)N[C@@H](C)C(=O)N[C@@H](CCCNC(=N)N)C(=O)NCC(=O)NCC(=O)N[C@@H](Cc1ccccc1)C(=O)N[C@@H](C(C)C)C(=O)N3)C(=O)N[C@@H](Cc1c[nH]cn1)C(=O)N[C@@H](CC(N)=O)C(=O)N[C@@H](Cc1c[nH]cn1)C(=O)N2 [Peptide 7] (H-GFGCNGPWSEDDLQCHNHCKSIKGYKGGYCARGGFVCKCY-OH; disulfide 4-30, 15-37, 19-39; N-terminus and C-terminus assumed) | 4 (≈ 0.912 µM) | 2 (≈ 0.456 µM) | –
2 | CC[C@H](C)[C@@H]1NC(=O)[C@H](CO)NC(=O)[C@H](CCCCN)NC(=O)[C@@H]2CSSC[C@@H](C(=O)N[C@@H](Cc3ccc(O)cc3)C(=O)O)NC(=O)[C@H](CCCCN)NC(=O)[C@@H]3CSSC[C@H](NC(=O)[C@H](CCCNC(=N)N)NC(=O)[C@H]([C@@H](C)CC)NC(=O)[C@H](CC(=O)O)NC(=O)[C@H](CC(=O)O)NC(=O)[C@H](CCC(=O)O)NC(=O)[C@H](CO)NC(=O)[C@H](Cc4c[nH]c5ccccc45)NC(=O)[C@@H]4CCCN4C(=O)CNC(=O)[C@H](CC(N)=O)NC(=O)[C@@H](NC(=O)CNC(=O)[C@H](Cc4ccccc4)NC(=O)CN)CSSC[C@H](NC(=O)[C@H](Cc4ccc(O)cc4)NC(=O)CNC(=O)CNC(=O)[C@H](CCCCN)NC(=O)[C@H](Cc4ccc(O)cc4)NC(=O)CNC(=O)[C@H](CCCCN)NC1=O)C(=O)N[C@@H](C)C(=O)N[C@@H](CO)C(=O)N[C@@H](C)C(=O)NCC(=O)N[C@@H](Cc1ccccc1)C(=O)N[C@@H](C(C)C)C(=O)N3)C(=O)N[C@@H](Cc1c[nH]cn1)C(=O)N[C@@H](CC(N)=O)C(=O)N[C@@H](Cc1c[nH]cn1)C(=O)N2 [Peptide 8] (H-GFGCNGPWSEDDIRCHNHCKSIKGYKGGYCASAGFVCKCY-OH; disulfide 4-30, 15-37, 19-39; N-terminus and C-terminus assumed) | 128 (≈ 29.4 µM) | 64 (≈ 14.7 µM) | –
3 | CC[C@H](C)[C@@H]1NC(=O)[C@H](CO)NC(=O)[C@H](CCCCN)NC(=O)[C@@H]2CSSC[C@@H](C(=O)N[C@@H](Cc3ccc(O)cc3)C(=O)O)NC(=O)[C@H](CCCCN)NC(=O)[C@@H]3CSSC[C@H](NC(=O)[C@H](CCCCN)NC(=O)[C@H](CC(C)C)NC(=O)[C@H](CC(=O)O)NC(=O)[C@H](CC(=O)O)NC(=O)[C@H](CCC(=O)O)NC(=O)[C@H](CCC(N)=O)NC(=O)[C@H](Cc4c[nH]c5ccccc45)NC(=O)[C@@H]4CCCN4C(=O)CNC(=O)[C@H](CC(N)=O)NC(=O)[C@@H](NC(=O)CNC(=O)[C@H](Cc4ccccc4)NC(=O)CN)CSSC[C@H](NC(=O)[C@H](Cc4ccc(O)cc4)NC(=O)CNC(=O)CNC(=O)[C@H](CCCCN)NC(=O)[C@H](Cc4ccc(O)cc4)NC(=O)CNC(=O)[C@H](CCCCN)NC1=O)C(=O)N[C@@H](C)C(=O)N[C@@H](CO)C(=O)N[C@@H](C)C(=O)NCC(=O)N[C@@H](Cc1ccccc1)C(=O)N[C@@H](C(C)C)C(=O)N3)C(=O)N[C@@H](Cc1c[nH]cn1)C(=O)N[C@@H](CC(N)=O)C(=O)N[C@@H](Cc1c[nH]cn1)C(=O)N2 [Peptide 9] (H-GFGCNGPWQEDDLKCHNHCKSIKGYKGGYCASAGFVCKCY-OH; disulfide 4-30, 15-37, 19-39; N-terminus and C-terminus assumed) | 8 (≈ 1.83 µM) | 4 (≈ 0.915 µM) | –
4 | CC[C@H](C)[C@@H]1NC(=O)[C@H](CO)NC(=O)[C@H](CCCCN)NC(=O)[C@@H]2CSSC[C@@H](C(=O)N[C@@H](Cc3ccc(O)cc3)C(=O)O)NC(=O)[C@H](CCCCN)NC(=O)[C@@H]3CSSC[C@H](NC(=O)[C@H](CCC(N)=O)NC(=O)[C@H]([C@@H](C)CC)NC(=O)[C@H](CC(=O)O)NC(=O)[C@H](CC(=O)O)NC(=O)[C@H](CCC(=O)O)NC(=O)[C@H]([C@@H](C)O)NC(=O)[C@H](Cc4c[nH]c5ccccc45)NC(=O)[C@@H]4CCCN4C(=O)CNC(=O)[C@H](CC(N)=O)NC(=O)[C@@H](NC(=O)CNC(=O)[C@H](Cc4ccccc4)NC(=O)CN)CSSC[C@H](NC(=O)[C@H](Cc4ccc(O)cc4)NC(=O)CNC(=O)CNC(=O)[C@H](CCCCN)NC(=O)[C@H](Cc4ccc(O)cc4)NC(=O)CNC(=O)[C@H](CCCCN)NC1=O)C(=O)N[C@@H](C)C(=O)N[C@@H](CCCNC(=N)N)C(=O)NCC(=O)NCC(=O)N[C@@H](Cc1ccccc1)C(=O)N[C@@H](C(C)C)C(=O)N3)C(=O)N[C@@H](Cc1c[nH]cn1)C(=O)N[C@@H](CC(N)=O)C(=O)N[C@@H](Cc1c[nH]cn1)C(=O)N2 [Peptide 10] (H-GFGCNGPWTEDDIQCHNHCKSIKGYKGGYCARGGFVCKCY-OH; disulfide 4-30, 15-37, 19-39; N-terminus and C-terminus assumed) | >128 | >128 | –
5 | CC1(C)S[C@@H]2[C@H](NC(=O)[C@H](N)c3ccccc3)C(=O)N2[C@H]1C(=O)O [ampicillin] | – | – | 76.8
6 | O=C(N[C@H](CO)[C@H](O)c1ccc([N+](=O)[O-])cc1)C(Cl)Cl [chloramphenicol] | – | – | 24.2
7 | C[C@H]1c2cccc(O)c2C(=O)C2=C(O)[C@]3(O)C(=O)C(C(N)=O)=C(O)[C@@H](N(C)C)[C@@H]3[C@@H](O)[C@@H]21 [doxycycline] | – | – | 1.4
8 | CC[C@H]1OC(=O)[C@H](C)[C@@H](O[C@H]2C[C@@](C)(OC)[C@@H](O)[C@H](C)O2)[C@H](C)[C@@H](O[C@@H]2O[C@H](C)C[C@H](N(C)C)[C@H]2O)[C@](C)(O)C[C@@H](C)C(=O)[C@H](C)[C@@H](O)[C@]1(C)O [erythromycin] | – | – | 56
9 | NC[C@H]1O[C@H](O[C@H]2[C@H](O)[C@@H](O[C@H]3O[C@H](CO)[C@@H](O)[C@H](N)[C@H]3O)[C@H](N)C[C@@H]2N)[C@H](O)[C@@H](O)[C@@H]1O [kanamycin] | – | – | 19.8
10 | penicillin | – | – | 76.8
